{"source": "paper PMC11047535", "about": "“Pharmacokinetics and Nephrotoxicity of Polymyxin MRX-8 in Rats: A Novel Agent against Resistant Gram-Negative Bacteria” (Antibiotics, 2024)", "format_in_all_cases": "in vivo, Sprague-Dawley (SD) rats", "key": {"[1]": {"test": "Pharmacokinetics in rat plasma after single subcutaneous administration (LC-MS/MS, non-compartmental analysis)", "settings": "for CLz (total body clearance for extravascular administration) / V (volume of distribution) / AUC(0-t) / Cmax / Tmax / MRT / half-life: LC-MS/MS, NCA, n = 5; for AUC(0-t) / Cmax / Tmax / MRT / half-life: Sprague-Dawley, sc; for MRT: read-out: MRT (mean residence time); for half-life: read-out: T1/2 (terminal half-life) (converted)", "description": "A Shimadzu LC-30A UHPLC system (Shimadzu, Kyoto, Japan) coupled with a Sciex QTRAP-5500 tandem mass spectrometer (Sciex, Framingham, MA, USA) was utilized. The chromatography was separated on a PHENOMENEX Kinetex®XB-C18 column (Phenomenex, Torrance, CA, USA) (100 mm × 2.1 mm, 2.6 μm) at 40 °C. The mobile phases were 2 mM of an ammonium acetate solution with 0.1% formic acid as the aqueous phase and acetonitrile solution with 0.1% formic acid as the organic phase. The gradient elution condition settings are detailed in Table S1. The mass spectrometer was operated in positive ESI mode with the following parameters: nebulizer gas (45 psi), heater gas (55 psi), curtain gas (40 psi), ion-spray voltage 4500 V, and ion source temperature of 450 °C.\nAn aliquot of 40 μL of rat plasma samples, 50 μL of polymyxin B1 (IS, 20 mg/L), and 50 μL of 6% formic acid in water were mixed. Then, 300 μL of acetonitrile was added to the mixture to precipitate proteins and centrifuged at 4 °C at 13,800 g for 10 min. A 100 μL aliquot of the supernatant was transferred and mixed with 150 μL of 6% formic acid water, and 5 μL was injected into the LC-MS/MS system.\nA total of 20 wild-type male Sprague-Dawley (SD) rats weighing 280 g ± 20 g were randomly divided into 4 groups. Water and food were adequately provided. Four groups were given MRX-8 at doses of 2 mg/kg, 4 mg/kg, 6 mg/kg, and 8 mg/kg of body weight (dissolved in normal saline). 0.5 mL of blood samples were obtained from the jugular vein (without anesthesia) before and 0.25, 0.5, 1, 2, 4, 6, 8, and 24 h after dosing. Blood samples were collected into tubes with EDTA-K2 anticoagulant and centrifuged at 4 °C at 3500 g for 10 min. The plasma was collected and stored in a −70 °C refrigerator until analysis.\nIn the meantime, 10 additional SD rats were divided into two groups (5 rats each) and administered PMB at 4 mg/kg and 8 mg/kg, separately. Blood samples were obtained before and 0.25, 0.5, 1, 2, 4, 6, 8, 10, 12, and 24 h after dosing. The drug administration and sample collection methods were consistent with those used for MRX-8.\nMRX-8 and MRX-8039 concentrations in plasma were measured, and mean concentration–time curves were plotted. […] After the administration, concentrations below the LLOQ were discarded."}, "rats [2]": {"test_system": "rats", "test": "Creatinine in rat plasma (nephrotoxicity), ADVIA Chemistry XPT analyzer", "settings": "for creatinine concentration: SD rats", "description": "(§1) Rats’ plasma and urine were collected continuously for 24 h after being administered subcutaneously. The plasma collected for the PK assay was split for creatinine and BUN concentrations, whereas a separate experiment was conducted to measure the biomarkers. The concentrations of creatinine and BUN in rat plasma were quantified utilizing the ADVIA Chemistry XPT analyzer (Siemens Healthcare, Munich, Germany). Rat plasma samples, along with quality control samples, were prepared and processed with dedicated reagent cartridges."}, "rats [3]": {"test_system": "rats", "test": "Blood urea nitrogen (BUN) in rat plasma (nephrotoxicity), ADVIA Chemistry XPT analyzer", "settings": "for BUN level: SD rats", "description": "as §1"}, "rats [4]": {"test_system": "rats", "test": "Plasma NGAL kidney injury biomarker, ELISA", "settings": "24 h after single s.c. 8 mg/kg, saline group 53.03 ± 2.25", "description": "as §1\n(§2) Enzyme-linked immunosorbent assay kits specific for KIM-1 (Cell Signaling Technology, Danvers, MA, USA), NGAL (Sangon Biotech, Shanghai, China), and TIMP-1 (Sangon Biotech, Shanghai, China) were utilized for analysis."}, "rats [5]": {"test_system": "rats", "test": "Urinary NGAL kidney injury biomarker, ELISA", "settings": "saline group 45.22 ± 1.46", "description": "as §1, §2"}, "rats [6]": {"test_system": "rats", "test": "Urinary KIM-1 kidney injury biomarker, ELISA", "settings": "24 h after single s.c. 4 and 8 mg/kg, high variability within each group", "description": "as §1, §2"}, "rats [7]": {"test_system": "rats", "test": "Urinary TIMP-1 kidney injury biomarker, ELISA", "settings": "for urinary TIMP-1 level: saline group 2.89 ± 1.80", "description": "as §1, §2"}, "rat kidney tissues": {"test_system": "rat kidney tissues", "test": "Kidney histology, PAS staining and semi-quantitative scores (SQS)", "settings": "PAS staining", "description": "The kidney tissues were taken 24 h after the PK sample collection. The tissues were embedded in paraffin, sliced, dewaxed into water, and washed for 5 min. […] The pathology scores refer to the paper published by Jumana et al.. Briefly, the renal histological assessment included three grades of tubular damage. Scores were assigned to grades: grade 1 = 1, grade 2 = 4, and grade 3 = 10. Kidney involvement was assessed based on the percentage of affected slices: <1% = 0, 1 to <5% = 1, 5 to <10% = 2, 10 to <20% = 3, 20 to <30% = 4, 30 to <40% = 5, and ≥40% = 6. The overall score was calculated by multiplying the percentage score with the grade score. Finally, SQS for renal histological changes was assigned: SQS 0 = no significant change (overall score: <1); SQS +1 = mild damage (overall score: 1 to <15); SQS +2 = mild-to-moderate damage (overall score: 15 to <30); SQS +3 = moderate damage (overall score: 30 to <45); SQS +4 = moderate-to-severe damage (overall score: 45 to <60); and SQS +5 = severe damage (overall score: 60). The samples in this experiment were examined by pathologist Shaojun Liu, who had no knowledge of the grouping.\nA one-way ANOVA was performed to evaluate (1) the PK parameters of T1/2, CLZ, V, and MRT at the dosages of 4, 6, and 8 mg/kg; (2) the concentrations of kidney injury biomarkers between the saline, MRX-8, and PMB groups. […]"}, "[8]": {"settings": "SD rats, single s.c. dose 4 mg/kg, plasma"}, "[9]": {"settings": "SD rats, single s.c. dose 8 mg/kg, plasma"}, "[10]": {"settings": "rat, in vivo, SD rats, single s.c. dose 4 mg/kg, plasma"}, "[11]": {"settings": "rat, in vivo, SD rats, single s.c. dose 8 mg/kg, plasma"}}, "note": "Like-named read-outs stand apart in the source and are kept apart here. Positions of bridges follow the written chain, without caps; N, C: chain ends. Non-standard residues stand in square brackets, D forms with d. Residues, ends and D or L forms follow the SMILES beside them. *: point of attachment. Propanoyl(3-OH) = O=C(CCO)*; X1 = CC[C@H](C)CCCCC(=O)*; Dab = NCC[C@H](N)C(=O)O"}
{"smiles": "CC(C)C[C@@H]1NC(=O)[C@@H](Cc2ccccc2)NC(=O)[C@H](CCN)NC(=O)[C@@H](NC(=O)[C@H](CCN)NC(=O)[C@@H](NC(=O)[C@H](CCN)NC(=O)CCO)[C@@H](C)O)CCNC(=O)[C@H]([C@@H](C)O)NC(=O)[C@H](CCN)NC(=O)[C@H](CCN)NC1=O", "note": "[MRX-8039] ({Propanoyl(3-OH)}-[Dab]T[Dab][Dab][Dab][dF]L[Dab][Dab]T; lactam 4-C)", "values": [{"measurement": "Tmax delay of MRX-8039 relative to MRX-8", "setting": "[1]; rat, in vivo", "result": "approximately 1.5 h"}]}
{"smiles": "CC[C@H](C)CCCCC(=O)N[C@@H](CCN)C(=O)N[C@H](C(=O)N[C@@H](CCN)C(=O)N[C@H]1CCNC(=O)[C@H]([C@@H](C)O)NC(=O)[C@H](CCN)NC(=O)[C@H](CCN)NC(=O)[C@H](CC(C)C)NC(=O)[C@@H](Cc2ccccc2)NC(=O)[C@H](CCN)NC1=O)[C@@H](C)O", "note": "[PMB, polymyxin B] (X1-[Dab]T[Dab][Dab][Dab][dF]L[Dab][Dab]T; lactam 4-C)", "values": [{"measurement": "Tmax (absorption, as read from Figure 3)", "setting": "[1]; SD rats, s.c. administration, plasma, range over dose groups", "result": "4~6 h"}, {"measurement": "CLz (total body clearance for extravascular administration)", "setting": "[1]; [8]", "result": "4 ± 1", "unit": "mL/min/kg"}, {"measurement": "V (volume of distribution)", "setting": "[1]; [8]", "result": "1.52 ± 0.27", "unit": "L/kg"}, {"measurement": "CLz (total body clearance for extravascular administration)", "setting": "[1]; [9]", "result": "4.17 ± 0.33", "unit": "mL/min/kg"}, {"measurement": "V (volume of distribution)", "setting": "[1]; [9]", "result": "1.49 ± 0.31", "unit": "L/kg"}, {"measurement": "AUC(0-t)", "setting": "[1]; rat, in vivo, 4 mg/kg, SD rats, single s.c. dose 4 mg/kg, plasma, read-out: AUC0–8 h", "result": "9550 ± 2540", "unit": "ng·h/mL"}, {"measurement": "AUC(0-t)", "setting": "[1]; rat, in vivo, 4 mg/kg, SD rats, single s.c. dose 4 mg/kg, plasma, read-out: AUC0–24 h", "result": "17100 ± 3900", "unit": "ng·h/mL"}, {"measurement": "AUC(0-t)", "setting": "[1]; rat, in vivo, 8 mg/kg, SD rats, single s.c. dose 8 mg/kg, plasma, read-out: AUC0–8 h", "result": "17900 ± 3050", "unit": "ng·h/mL"}, {"measurement": "AUC(0-t)", "setting": "[1]; rat, in vivo, 8 mg/kg, SD rats, single s.c. dose 8 mg/kg, plasma, read-out: AUC0–24 h", "result": "31200 ± 3140", "unit": "ng·h/mL"}, {"measurement": "Cmax", "setting": "[1]; [10]", "result": "1770 ± 510", "unit": "ng/mL"}, {"measurement": "Tmax", "setting": "[1]; [10]", "result": "4.8 ± 1.1", "unit": "h"}, {"measurement": "MRT", "setting": "[1]; [10]", "result": "8.66 ± 0.7", "unit": "h"}, {"measurement": "half-life", "setting": "[1]; [10]", "result": "4.55 ± 0.56", "unit": "h"}, {"measurement": "Cmax", "setting": "[1]; [11]", "result": "3150 ± 440", "unit": "ng/mL"}, {"measurement": "Tmax", "setting": "[1]; [11]", "result": 6, "unit": "h"}, {"measurement": "MRT", "setting": "[1]; [11]", "result": "8.23 ± 0.71", "unit": "h"}, {"measurement": "half-life", "setting": "[1]; [11]", "result": "4.09 ± 0.44", "unit": "h"}, {"measurement": "creatinine concentration", "setting": "rats [2]; 8 h after single s.c. 4 mg/kg, saline group 21.25 ± 2.22", "result": "103.86 ± 12.66", "unit": "µmol/L"}, {"measurement": "creatinine concentration", "setting": "rats [2]; 8 h after single s.c. 8 mg/kg, saline group 21.25 ± 2.22", "result": "85.61 ± 17.27", "unit": "µmol/L"}, {"measurement": "change of blood creatinine levels compared to the saline group", "setting": "rats [2]; 8 h and 24 h after single s.c. dose (MRX-8 2 to 8 mg/kg; PMB 4 and 8 mg/kg), one-way ANOVA", "result": "significant increase"}, {"measurement": "creatinine concentration", "setting": "rats [2]; 24 h after single s.c. 4 mg/kg, saline group 22.5 ± 2.52", "result": "169.79 ± 61.93", "unit": "µmol/L"}, {"measurement": "creatinine concentration", "setting": "rats [2]; 24 h after single s.c. 8 mg/kg, saline group 22.5 ± 2.52", "result": "110.81 ± 67.3", "unit": "µmol/L"}, {"measurement": "BUN level", "setting": "rats [3]; 8 h after single s.c. 4 mg/kg, saline group 5.52 ± 0.56", "result": "19.58 ± 3.05", "unit": "mmol/L"}, {"measurement": "BUN level", "setting": "rats [3]; 8 h after single s.c. 8 mg/kg", "result": "15.36 ± 3.05", "unit": "mmol/L"}, {"measurement": "change of BUN levels compared to the saline group", "setting": "rats [3]; 8 h and 24 h after single s.c. dose (PMB 4 and 8 mg/kg; MRX-8, except significant increase at 4 mg/kg at 8 h)", "result": "significant increase"}, {"measurement": "BUN level", "setting": "rats [3]; 24 h after single s.c. 4 mg/kg", "result": "44.3 ± 1.12", "unit": "mmol/L"}, {"measurement": "BUN level", "setting": "rats [3]; 24 h after single s.c. 8 mg/kg", "result": "54.85 ± 11.81", "unit": "mmol/L"}, {"measurement": "NGAL level in plasma", "setting": "rats [4]", "result": "61.14 ± 2.52", "unit": "ng/mL"}, {"measurement": "urinary NGAL level", "setting": "rats [5]; 24 h after single s.c. 4 mg/kg", "result": "50.34 ± 2.70", "unit": "ng/mL"}, {"measurement": "urinary NGAL level", "setting": "rats [5]; 24 h after single s.c. 8 mg/kg", "result": "56.95 ± 6.01", "unit": "ng/mL"}, {"measurement": "change of urine KIM-1 levels compared to the saline group", "setting": "rats [6]", "result": "No statistically significant differences"}, {"measurement": "urinary TIMP-1 level", "setting": "rats [7]; 24 h after single s.c. 4 mg/kg", "result": "20.65 ± 12.44", "unit": "ng/mL"}, {"measurement": "urinary TIMP-1 level", "setting": "rats [7]; 24 h after single s.c. 8 mg/kg", "result": "20.54 ± 7.82", "unit": "ng/mL"}, {"measurement": "change of urinary TIMP-1 compared to the saline group", "setting": "rats [7]; 24 h after single s.c. 4 and 8 mg/kg", "result": "increased significantly"}, {"measurement": "histological findings in kidney tissues", "setting": "rat kidney tissues; 24 h post single s.c. dose of 8 mg/kg", "result": "more severe renal damage, including tubular dilation, cellular necrosis, and tubular formation"}, {"measurement": "histological findings in kidney tissues", "setting": "rat kidney tissues; 24 h post single s.c. dose, compared to the saline group", "result": "mild focal tubular cell shedding and cytoplasmic attenuation"}]}
